Here are results for eleven compounds from PubChem BioAssay (NCI).

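Cells were grown in 96-well plates and exposed to each compound for 48 hours at five concentrations; endpoints were interpolated linearly between bracketing concentrations, or set to the highest concentration if not reached. TGI marks complete inhibition of growth.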

Among the test systems are CCRF-CEM leukemia; MDA-MB-231 breast; A498 renal; U251 CNS; NCI-H226 lung; SK-MEL-28 melanoma; MALME-3M melanoma; 786-0 renal; ACHN renal; UACC-62 melanoma; HL-60(TB) leukemia; OVCAR-3 ovarian; SK-MEL-2 melanoma; SNB-19 CNS; K-562 leukemia; UACC-257 melanoma; MCF7 breast; IGROV1 ovarian; OVCAR-5 ovarian; MOLT-4 leukemia.
Holding throughout (test): DTP human tumour cell line panel, 48 h

For the compound `CCOC(=O)c1c(N2CCOCC2)ncn(-c2cccc(Cl)c2)c1=O`, the TGI in the experiment with CCRF-CEM leukemia, in the experiment with MDA-MB-231 breast, with A498 renal, with U251 CNS, in the experiment with NCI-H226 lung and in the experiment with SK-MEL-28 melanoma was over 100 µM throughout. In addition, the TGI with MALME-3M melanoma, in the experiment with 786-0 renal, with ACHN renal, in the experiment on UACC-62 melanoma, in the experiment with HL-60(TB) leukemia and in the experiment with OVCAR-3 ovarian was over 100 µM each time. The concentration for total growth inhibition (TGI) with SK-MEL-2 melanoma, with SNB-19 CNS, with K-562 leukemia, in the experiment with UACC-257 melanoma, with MCF7 breast and in the experiment on IGROV1 ovarian was over 100 µM in each case. Besides, the total growth inhibition concentration (TGI) with OVCAR-5 ovarian and in the experiment on MOLT-4 leukemia was over 100 µM throughout.

On to `O=C1C=C(NCC(c2ccccc2)c2ccccc2)C(=O)c2ncccc21`, for which the TGI with CCRF-CEM leukemia is 9.7 µM; with MDA-MB-231 breast, 11.5 µM; in the experiment on A498 renal, 9.69 µM; in the experiment with U251 CNS it was 11.4 µM; in the experiment on NCI-H226 lung, 9.71 µM; with SK-MEL-28 melanoma, 10 µM. Further, the TGI in the experiment with MALME-3M melanoma was 3.4 µM; in the experiment on 786-0 renal, 15.3 µM; in the experiment with ACHN renal, 13.4 µM; with UACC-62 melanoma, 2.9 µM; in the experiment on HL-60(TB) leukemia, 3.32 µM; with OVCAR-3 ovarian, 3.32 µM. Further, the concentration for total growth inhibition (TGI) with SK-MEL-2 melanoma is 9.13 µM; with SNB-19 CNS, 9.62 µM; with K-562 leukemia, 4.1 µM; with UACC-257 melanoma, 2.45 µM; in the experiment with MCF7 breast, 3.33 µM; with IGROV1 ovarian, 8.82 µM. In addition, the TGI was 10.1 µM with OVCAR-5 ovarian and 6.91 µM in the experiment with MOLT-4 leukemia.

Take `O=C(OCc1ccccc1)c1ccc(NCc2cc(O)ccc2O)cc1`: the TGI is 2.8 µM in the experiment on CCRF-CEM leukemia; 6.08 µM in the experiment on MDA-MB-231 breast; 3.21 µM in the experiment with A498 renal; 2.64 µM in the experiment on U251 CNS; 7.69 µM in the experiment on NCI-H226 lung; 3 µM with SK-MEL-28 melanoma. For the same compound, the TGI was determined as 2.98 µM in the experiment on MALME-3M melanoma; 2.67 µM in the experiment on 786-0 renal; 2.77 µM in the experiment with ACHN renal; 3.15 µM in the experiment with UACC-62 melanoma; 2.56 µM in the experiment with HL-60(TB) leukemia; 2.38 µM in the experiment with OVCAR-3 ovarian. For the same compound, the TGI in the experiment with SK-MEL-2 melanoma is 5.23 µM; in the experiment with SNB-19 CNS, 10.8 µM; in the experiment on K-562 leukemia it was 6.98 µM; in the experiment with UACC-257 melanoma, 3.4 µM; with MCF7 breast, 7.81 µM; in the experiment with IGROV1 ovarian, 2.49 µM. Also, the TGI in the experiment on OVCAR-5 ovarian is 13.9 µM.

`C[C@@H](NC(=O)Cn1c(Cl)nc2ccccc21)c1ccccc1`: the TGI with CCRF-CEM leukemia, in the experiment on MDA-MB-231 breast, in the experiment with A498 renal, in the experiment with U251 CNS, in the experiment on NCI-H226 lung and in the experiment on SK-MEL-28 melanoma was over 100 µM each time. Besides, the TGI in the experiment on MALME-3M melanoma, in the experiment with 786-0 renal, in the experiment with ACHN renal, in the experiment on UACC-62 melanoma, in the experiment with HL-60(TB) leukemia and with OVCAR-3 ovarian was over 100 µM each time. Further, the TGI in the experiment on SK-MEL-2 melanoma, with SNB-19 CNS, with K-562 leukemia, in the experiment with UACC-257 melanoma, with MCF7 breast and in the experiment with OVCAR-5 ovarian was over 100 µM throughout. In the experiment on MOLT-4 leukemia, the TGI was over 100 µM.

For `O=[N+]([O-])c1cccc(-c2cn3c(n2)Cc2ccccc2C3)c1`, the TGI in the experiment on CCRF-CEM leukemia was over 100 µM; with MDA-MB-231 breast it was 67.6 µM; with A498 renal it was over 100 µM; in the experiment on U251 CNS it was over 100 µM; with NCI-H226 lung it was over 100 µM; in the experiment on SK-MEL-28 melanoma it was over 100 µM. The TGI in the experiment with MALME-3M melanoma, with 786-0 renal, in the experiment with ACHN renal, with UACC-62 melanoma, in the experiment with HL-60(TB) leukemia and in the experiment on SK-MEL-2 melanoma was over 100 µM throughout. Besides, the TGI is over 100 µM in the experiment on SNB-19 CNS; over 100 µM with K-562 leukemia; over 100 µM in the experiment on UACC-257 melanoma; over 100 µM in the experiment with MCF7 breast; over 100 µM in the experiment with IGROV1 ovarian; 79.9 µM with OVCAR-5 ovarian. In the experiment on MOLT-4 leukemia, the TGI was over 100 µM.

Turning to `Nc1n[nH]c2c(C(=O)Nc3ccc(Cl)cc3)c(N)n(N)c(=O)c12`, the TGI in the experiment on CCRF-CEM leukemia, in the experiment on MDA-MB-231 breast, with A498 renal, in the experiment with U251 CNS, in the experiment with NCI-H226 lung and in the experiment on SK-MEL-28 melanoma was over 100 µM throughout. The TGI in the experiment on MALME-3M melanoma, with 786-0 renal, with UACC-62 melanoma, in the experiment on HL-60(TB) leukemia, in the experiment on OVCAR-3 ovarian and in the experiment on SK-MEL-2 melanoma was over 100 µM each time. The TGI in the experiment with SNB-19 CNS, in the experiment on K-562 leukemia, with UACC-257 melanoma, in the experiment with MCF7 breast, in the experiment on IGROV1 ovarian and with OVCAR-5 ovarian was over 100 µM in each case. The TGI in the experiment on MOLT-4 leukemia is over 100 µM.

For the compound `C[C@H](c1ccccc1)n1c(N)c(-c2nc3ccccc3s2)c2ccc([N+](=O)[O-])cc2c1=O`, the TGI with MDA-MB-231 breast was 27.7 µM; with A498 renal it was 75.2 µM; with U251 CNS, 53.3 µM; in the experiment with NCI-H226 lung, over 63.1 µM; with SK-MEL-28 melanoma, over 100 µM; in the experiment on MALME-3M melanoma, 56.8 µM. For the same compound, the TGI with 786-0 renal is over 100 µM; in the experiment with ACHN renal it was 65.7 µM; in the experiment with UACC-62 melanoma it was over 100 µM; in the experiment on HL-60(TB) leukemia it was 36.6 µM; in the experiment with OVCAR-3 ovarian, over 100 µM; in the experiment with SK-MEL-2 melanoma it was over 28.7 µM. In addition, the TGI with SNB-19 CNS is over 52.1 µM; in the experiment with K-562 leukemia, 4.25 µM; in the experiment with UACC-257 melanoma it was 76.9 µM; in the experiment with MCF7 breast, 52.2 µM; in the experiment with IGROV1 ovarian it was 98.9 µM; with OVCAR-5 ovarian, over 100 µM. The compound also returned a concentration for total growth inhibition (TGI) in the experiment on MOLT-4 leukemia of 19.9 µM.

In the case of `COc1ccc(C2Oc3c(cccc3-c3c(-c4ccc(O)cc4)oc4cc(O)cc(O)c4c3=O)C(=O)C2O)cc1O` (stereo unspecified), the TGI with CCRF-CEM leukemia, in the experiment with MDA-MB-231 breast, in the experiment with A498 renal, in the experiment with U251 CNS, in the experiment with NCI-H226 lung and in the experiment on SK-MEL-28 melanoma was over 100 µM throughout. Also, the TGI with MALME-3M melanoma, with 786-0 renal, in the experiment on ACHN renal, in the experiment on UACC-62 melanoma, in the experiment with HL-60(TB) leukemia and with OVCAR-3 ovarian was over 100 µM in each case. In addition, the TGI in the experiment on SNB-19 CNS, with K-562 leukemia, in the experiment on UACC-257 melanoma, in the experiment with MCF7 breast, with IGROV1 ovarian and in the experiment on OVCAR-5 ovarian was over 100 µM in each case. The TGI in the experiment with MOLT-4 leukemia was over 100 µM.

As for `COc1c2cc([N+](=O)[O-])cc1CN(C(=O)C(F)(F)F)CCOCCN(C(=O)C(F)(F)F)C2`, the TGI in the experiment with CCRF-CEM leukemia, in the experiment on MDA-MB-231 breast, with A498 renal, in the experiment with U251 CNS, with NCI-H226 lung and with SK-MEL-28 melanoma was over 100 µM in each case. Moreover, the TGI in the experiment on MALME-3M melanoma, with 786-0 renal, in the experiment with ACHN renal, with UACC-62 melanoma, with HL-60(TB) leukemia and in the experiment on OVCAR-3 ovarian was over 100 µM throughout. The TGI in the experiment with SK-MEL-2 melanoma, in the experiment on SNB-19 CNS, in the experiment with UACC-257 melanoma, in the experiment with MCF7 breast, in the experiment with IGROV1 ovarian and in the experiment on OVCAR-5 ovarian was over 100 µM throughout. Also, the TGI with MOLT-4 leukemia was over 100 µM.

`CC(C)[C@@H]1CC[C@@H](C)C[C@H]1OC(=O)/C=C1\C(C(=O)O[C@@H]2C[C@H](C)CC[C@H]2C(C)C)[C@H]2C=C[C@@H]1O2` (stereo partly specified): the TGI in the experiment with CCRF-CEM leukemia, with MDA-MB-231 breast, in the experiment on A498 renal, with U251 CNS, in the experiment on NCI-H226 lung and in the experiment on SK-MEL-28 melanoma was over 100 µM each time. The TGI was over 100 µM in the experiment with MALME-3M melanoma; over 100 µM in the experiment on 786-0 renal; over 100 µM in the experiment with ACHN renal; over 100 µM in the experiment on UACC-62 melanoma; 76.1 µM in the experiment with HL-60(TB) leukemia; over 100 µM in the experiment on OVCAR-3 ovarian. Moreover, the TGI in the experiment with SNB-19 CNS was over 100 µM; with K-562 leukemia, over 100 µM; in the experiment on UACC-257 melanoma, over 100 µM; in the experiment with MCF7 breast, 71.6 µM; in the experiment on IGROV1 ovarian, over 100 µM; in the experiment with OVCAR-5 ovarian it was over 100 µM. In the experiment on MOLT-4 leukemia, this compound showed a TGI of over 100 µM.

`C=CCSC1=N/C(=C\c2ccc(OC)cc2)C(=O)N1CC=C`: the total growth inhibition concentration (TGI) was 78 µM with CCRF-CEM leukemia; over 100 µM in the experiment on MDA-MB-231 breast; 66.6 µM in the experiment with A498 renal; over 100 µM in the experiment on U251 CNS; over 100 µM in the experiment with SK-MEL-28 melanoma; 87.7 µM with MALME-3M melanoma. The TGI in the experiment on 786-0 renal is over 100 µM; in the experiment on ACHN renal, over 100 µM; in the experiment on UACC-62 melanoma it was over 100 µM; in the experiment with HL-60(TB) leukemia, 34.8 µM; in the experiment with OVCAR-3 ovarian it was over 100 µM; in the experiment on SK-MEL-2 melanoma, 91.5 µM. Besides, the TGI in the experiment with SNB-19 CNS was over 100 µM; in the experiment on K-562 leukemia it was over 100 µM; with UACC-257 melanoma, 58.4 µM; in the experiment on MCF7 breast, over 100 µM; in the experiment with IGROV1 ovarian, over 100 µM; in the experiment on OVCAR-5 ovarian, over 100 µM. The TGI with MOLT-4 leukemia was 37.1 µM.
